Experimental data from publication PMC12676205, “New Se‐Compounds With Antileishmanial, Antitumor, and Carbonic Anhydrase Inhibitory Properties” (Archiv Der Pharmazie, 2025).
Read-outs that look alike come from different tables or passages of the source.

Experiments:
Melanoma subpanel [1] = experiment: NCI-60 one-dose screen, melanoma subpanel; format: cell-based, human; settings: 10 µM, 48 h
Description: (§1) To explore the potential antiproliferative properties of the newly synthesized derivatives, they were submitted to the National Cancer Institute's (NCI) Developmental Therapeutics Program (DTP) for screening at 10 μM in a panel of approximately 60 human cancer cell lines from different cancer types. The results are reported as the growth percentage (GP), which is the growth of the treated cells with each compound for 48 h compared to the untreated controls (Figure 2). […] The initial screening results are summarized in Figure 2, and the mean GP values of each subpanel are depicted in Figure 3. The full reports are compiled in the Supplementary Section.
(§2) All the reported selenoesters (1–6) were submitted to the DTP of NCI. First, they were screened at a single dose (10^−5 M) against a panel of 60 cancer cell lines derived from different tumor types following the methodology available (https://dtp.cancer.gov/discovery_development/nci-60/methodology.htm). As all the compounds satisfied the threshold inhibition criteria established, they were further assessed at five concentrations (0.01, 0.1, 1, 10, and 100 µM) against the same cell panel to obtain their corresponding dose–response curves and three antitumor parameters (GI50, TGI, and LC50) by regression. GraphPad Prism 7.0 Software was used to represent the corresponding graphs.

Breast subpanel = experiment: NCI-60 one-dose screen, breast subpanel; format: cell-based, human; settings: 10 µM, 48 h
Description: as §1, §2

L. major promastigotes = experiment: Leishmanicidal activity against promastigotes (MTT), L. major; format: cell-based, Leishmania major
Description: The synthesized compounds were tested for their antileishmanial activity against promastigotes of L. major and L. infantum at four concentrations (1, 10, 50, and 100 µM) for 48 h using the 3‐(4,5‐dimethylthiazol‐2‐yl)‐2,5‐diphenyltetrazolium bromide (MTT) assay. In this evaluation, the activity was expressed in IC50 (concentration inhibiting the parasite growth by 50%). […] The CC50 was defined as the concentration of selenoesters that led to a reduction in the viability of the macrophages, such that only 50% of the cells survived when compared to the control group. This cell line, derived from the blood of a human with acute monocytic leukemia, was chosen as it has been widely reported that it resembles tissue macrophages to various extents as well as supports the infection by numerous Leishmania promastigotes. The selectivity indexes (SIs) were calculated as the ratio between toxicity on macrophages (THP‐1 cells)/antileishmanial activity. The data for standard control drugs (miltefosine and paromomycin) are included for comparison purposes.
The promastigotes of L. major (clone VI, MHOM/IL/80/Friendlin) and L. infantum (BCN‐150) were grown at 26°C under continuous shaking in M199 1× medium (Sigma, USA). This media was supplemented with 10% of heat‐inactivated fetal bovine serum (FBS) (Gibco, USA), 0.0005% (w/v) hemin, 0.1 mM adenine, 25 mM HEPES (pH 7.2), 0.0001% (w/v) biotin, and 100 UI/mL penicillin and […] streptomycin (Gibco, USA).
The antileishmanial activity of the reported selenoesters was determined using the MTT assay as previously described during the logarithmic growth phase of the tested promastigotes of L. major and L. infantum. Briefly, the Leishmania parasites were seeded into 96‐well flat‐bottom plates (3 × 10^5 parasites/100 µL) and treated with four different concentrations ranging between 1 and 100 µM of each selenoester at 26°C for 48 h. Afterwards, 20 µL of MTT (5 mg/mL in PBS) was added to each well and incubated for 4 h under the same conditions. Then, 80 µL/well of DMSO was added to dissolve the resultant formazan crystals. The absorbances were determined on a Multiskan EX photometric plate reader for microplates at 540 nm. Three independent experiments performed in triplicate were carried out for each compound, and OriginPro 8.5.1 Software was used to calculate the IC50 values by fitting the data to a dose–inhibition sigmoid curve.

[2] = tested on: NSCL (non‐small‐cell lung cancer) subpanel; experiment: NCI-60 five-dose assay, NSCL subpanel; format: cell-based; settings: Homo sapiens, 48 h; for GI50: read-out: Mean GI50 NSCL; for LC50 (50% lethal concentration): read-out: Mean LC50 NSCL
Description: (§3) All the compounds were selected for further testing since they fulfilled the set NCI one‐dose screening parameters for threshold inhibition. They were tested at five different concentrations (0.01, 0.1, 1, 10, and 100 μM) for 48 h against the same cell line panel and the dose–response curves along with three response parameters (50% growth inhibitory concentration [GI50], the 50% lethal concentration [LC50], and the total growth inhibition [TGI]) were calculated for every cancer cell line. The full reported data and corresponding graphs are compiled in Supporting Information S1. Average values of GI50, TGI, and LC50 values of all the reported selenoesters in all the subpanels are represented in Figure 4.
as §2

OVCAR‐5 = experiment: NCI-60 one-dose screen, OVCAR-5; format: cell-based, human; settings: 10 µM, 48 h
Description: as §1, §2

hCA I = biological target: T1, hCA I (Homo sapiens, UniProt P00915); experiment: hCA I inhibition, stopped-flow CO2 hydration assay; format: biochemical; settings: stopped flow technique, mean from three assays
T1 construct: made in house
Description: (§4) An Applied Photophysics stopped‐flow instrument was used to assay the CA‐catalyzed CO2 hydration activity [52]. […] The uncatalyzed rates were determined in the same manner and subtracted from the total observed rates. Stock solutions of the inhibitor (0.1 mM) were prepared in distilled–deionized water, and dilutions up to 0.01 nM were done thereafter with the assay buffer. Inhibitor and enzyme solutions were preincubated together for 15 min at room temperature before the assay, to allow for the formation of the E–I complex. The inhibition constants were obtained by Nonlinear least‐squares methods using PRISM 3 and the Cheng‐Prusoff equation as reported earlier and represent the mean from at least three different determinations. All CA isoforms were recombinant proteins obtained in‐house, as reported earlier [54, 55, 56].

Leukemia subpanel [3] = experiment: NCI-60 one-dose screen, leukemia subpanel; format: cell-based, human; settings: 10 µM, 48 h
Description: as §1, §2

Renal subpanel [4] = experiment: NCI-60 five-dose assay, renal subpanel; format: cell-based; settings: Homo sapiens, 48 h; for GI50: read-out: Mean GI50 Renal; for LC50: read-out: Mean LC50 Renal
Description: as §3, §2

Colon subpanel = experiment: NCI-60 five-dose assay, colon subpanel; format: cell-based; settings: Homo sapiens, 48 h; for GI50: read-out: Mean GI50 Colon; for CC50: read-out: Mean LC50 Colon
Description: as §3, §2

[5] = tested on: NCI‐60 human cancer cell lines; experiment: NCI-60 one-dose screen, whole panel; format: cell-based; settings: 10 µM, 48 h, whole NCI-60 panel
Description: as §1, §2

Renal subpanel [6] = experiment: NCI-60 one-dose screen, renal subpanel; format: cell-based, human; settings: 10 µM, 48 h
Description: as §1, §2

hCA IX = biological target: T2, hCA IX (Homo sapiens, UniProt Q16790); experiment: biochemical; settings: stopped flow technique, mean from three assays
T2 construct: made in house
Description: as §4

hCA XII = biological target: T3, hCA XII (Homo sapiens, UniProt O43570); experiment: hCA XII inhibition, stopped-flow CO2 hydration assay; format: biochemical; settings: stopped flow technique, mean from three assays
T3 construct: made in house
Description: as §4

Melanoma subpanel [7] = experiment: NCI-60 five-dose assay, melanoma subpanel; format: cell-based; settings: Homo sapiens, 48 h; for GI50: read-out: Mean GI50 Melanoma; for LC50 (50% lethal concentration): read-out: Mean LC50 Melanoma
Description: as §3, §2

CNS subpanel = experiment: NCI-60 one-dose screen, CNS subpanel; format: cell-based, human; settings: 10 µM, 48 h
Description: as §1, §2

Leukemia subpanel [8] = experiment: NCI-60 five-dose assay, leukemia subpanel; format: cell-based; settings: Homo sapiens, 48 h; for GI50: read-out: Mean GI50 Leukemia; for CC50: read-out: Mean LC50 Leukemia
Description: as §3, §2

[9] = Leishmania major, 48 h, mean ± SD, read-out: L. major IC50
[10] = 48 h, mean ± SD, read-out: L. major IC50
[11] = read-out: L. major IC50, 48 h, mean ± SD

T1 sequence (P00915 whole entry): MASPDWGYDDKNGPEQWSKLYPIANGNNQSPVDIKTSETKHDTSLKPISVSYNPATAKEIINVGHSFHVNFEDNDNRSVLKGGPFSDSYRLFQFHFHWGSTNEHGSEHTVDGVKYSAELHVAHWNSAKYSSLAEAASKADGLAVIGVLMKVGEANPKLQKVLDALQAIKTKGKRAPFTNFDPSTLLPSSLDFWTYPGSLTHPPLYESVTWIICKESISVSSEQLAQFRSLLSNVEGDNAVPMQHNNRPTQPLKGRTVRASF
T3 sequence (O43570 25-354): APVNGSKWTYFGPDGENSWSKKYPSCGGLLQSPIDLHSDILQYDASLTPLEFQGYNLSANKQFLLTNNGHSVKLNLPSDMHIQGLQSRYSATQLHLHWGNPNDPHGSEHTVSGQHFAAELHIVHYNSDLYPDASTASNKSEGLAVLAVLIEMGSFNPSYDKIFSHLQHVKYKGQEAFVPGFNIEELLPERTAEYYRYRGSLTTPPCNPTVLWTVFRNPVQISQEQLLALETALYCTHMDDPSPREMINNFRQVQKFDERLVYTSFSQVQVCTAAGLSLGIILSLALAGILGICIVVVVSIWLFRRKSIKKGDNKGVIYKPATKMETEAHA

| SMILES | average growth cell value, Melanoma (Melanoma subpanel [1]) [%] | average growth cell value, Breast (Breast subpanel) [%] | IC50 (L. major promastigotes; [9]) [µM] | GI50 [2] [µM] | LC50 (50% lethal concentration) [2] [µM] | behaviour in OVCAR‐5 (OVCAR‐5) | Ki (hCA I) [µM] | average growth cell value, Leukemia (Leukemia subpanel [3]) [%] | GI50 (Renal subpanel [4]) [µM] | LC50 (Renal subpanel [4]) [µM] | GI50 (Colon subpanel) [µM] | CC50 (Colon subpanel) [µM] | mean GP (growth percentage) [5] [%] | average growth cell value, Renal (Renal subpanel [6]) [%] | Ki (hCA IX) [µM] | Ki (hCA XII) [µM] | GI50 (Melanoma subpanel [7]) [µM] | average growth cell value, CNS (CNS subpanel) [%] | GI50 (Leukemia subpanel [8]) [µM] | CC50 (Leukemia subpanel [8]) [µM] | also measured |
| --- | --- | --- | --- | --- | --- | --- | --- | --- | --- | --- | --- | --- | --- | --- | --- | --- | --- | --- | --- | --- | --- |
| N#Cc1ccc(NC(=O)C[Se]C(=O)c2ccccc2)cc1C(F)(F)F [Compound 1, Se‐(2‐((4‐cyano‐3‐(trifluoromethyl)phenyl)amino)‐2‐oxoethyl)benzoselenoate] | -94.28 | -86.92 | 26.6 ± 1.81 | 1.54 | 5.61 | cytotoxic activity | > 100 | -96.53 | 1.57 | 6.11 | 1.98 | 6.79 | −94.16 | -95.41 | 57.2 | 51.1 | 1.36 | -94.57 | 1.01 | 4.36 | LC50 (50% lethal concentration) (Melanoma subpanel [7]): 5.49 µM |
| O=C(C[Se]C(=O)c1ccccc1)Nc1cccc(OC(F)(F)F)c1 [Compound 3, Se‐(2‐oxo‐2‐((3‐(trifluoromethoxy)phenyl)amino)ethyl)benzoselenoate] | -50.62 | -45.08 | 6 to 10 | 2.3 | 13.2 | cytostatic behavior | > 100 | -36.81 | 2.33 | 15.4 | 8.52 | 43.9 | −43.99 | -61.17 | 80.2 | 17.4 | 2.33 | -78.56 | 3.06 | 19.6 | IC50 (L. major promastigotes; [10]): 9.67 ± 0.78 µM; IC50 (L. major promastigotes; [11]): < 10 µM; LC50 (50% lethal concentration) (Melanoma subpanel [7]): 13.6 µM |
| O=C(C[Se]C(=O)c1ccco1)Nc1cccc(OC(F)(F)F)c1 [Compound 6, Se‐(2‐oxo‐2‐((3‐(trifluoromethoxy)phenyl)amino)ethyl)furan‐2‐carboselenoate] | -18.35 | -10.87 | 6 to 10 | 3.64 |  | cytostatic behavior | > 100 | 39.71 | 5.62 |  | 7.93 | 67.3 |  | -17.86 | 35.9 | 9.6 | 4.95 | -34.28 | 6.45 | > 100 | IC50 (L. major promastigotes; [10]): 10.1 ± 1.27 µM; IC50 (L. major promastigotes; [11]): < 10 µM |
| O=C(C[Se]C(=O)c1ccco1)Nc1ccc([N+](=O)[O-])c(C(F)(F)F)c1 [Compound 5, Se‐(2‐((4‐nitro‐3‐(trifluoromethyl)phenyl)amino)‐2‐oxoethyl)furan‐2‐carboselenoate] | -56.28 | -28.95 | 18.3 ± 5.9 | 1.9 |  | cytotoxic activity | > 100 | 6.59 | 2.2 |  | 2.58 | 46.5 |  | -39.51 | 21.1 | 72.6 | 1.7 | -59.61 | 2.51 | > 100 |  |
| O=C(C[Se]C(=O)c1ccccc1)Nc1ccc([N+](=O)[O-])c(C(F)(F)F)c1 [Compound 2, Se‐(2‐((4‐nitro‐3‐(trifluoromethyl)phenyl)amino)‐2‐oxoethyl)benzoselenoate] | -94.64 | -83.18 | 27.1 ± 3.35 | 1.41 | 5.36 | cytotoxic activity | > 100 | -94.69 | 1.38 | 5.2 | 2.11 | 7.68 | −91.96 | -96.22 | 76.3 | 91.5 | 1.24 | -94.42 | 0.9 | 4.34 | LC50 (50% lethal concentration) (Melanoma subpanel [7]): 5.37 µM |
